{"source": "patent US9789096B2", "about": "“Methods and compositions for selective and targeted cancer therapy” (Board of Regents of the University of Texas System, priority 2013, dated 2017)", "key": {"[1]": {"test_system": "H2122 clones", "assay": "Toxicity to H2122 clones with loss of HMOX2", "assay_type": "cell-based, human", "method": "FIG. 7O. H2122 cells were engineered to have homozygous or heterozygous loss of HMOX2. hCas9 and guide RNA's targeting HMOX2 were co-expressed in H2122 cells and then cells were individually cloned. Individual clones were raised and analyzed for HMOX2 expression.\nFIG. 7P. HMOX2 loss has no impact on the sensitivity of cells to SW208108. A dose response curve assaying the toxicity of SW208108 to H2122 clones identified in FIG. 7O was determined. There is no correlation between HMOX2 expression and SW208108 potency.\nHowever, when HO2 was knocked out from H2122 cells using Crisper technology (FIG. 7O), no toxicity was observed, and SW208108 and related compounds retained toxicity towards H2122 cells (FIG. 7P). We conclude that HO2 is not required for cell survival or for the cytotoxicity of the selective toxins."}, "[2]": {"test_system": "H2122", "assay": "Cell viability dose-response, H2122", "assay_type": "cell-based, human", "conditions": "text b138; read-out: IC50 towards H2122 cells", "outline": "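Cells plated at 15% confluence in RPMI-1640 with 5% FBS and 2 mM L-glutamine, treated with compound in a 12-point, 3-fold dilution series from 50 micromolar, in duplicate. ATP measured by Cell Titer Glo after 4 days; IC50 taken from the dose-response curve.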"}, "[3]": {"test_system": "H2122 cells", "assay": "Lipid ratios in H2122 cells by MS/MS", "assay_type": "cell-based, human", "conditions": "100 nM, within 6 hours", "method": "FIG. 8A. Covalent binders of SCD1 affect lipid ratios in human cancer cells. H2122 cells were treated with 100 nM SW208108 for the indicated times before a lipid extraction was performed. Lipid extracts were analyzed by MS/MS in order to determine the fractional content of 8 different lipid species including triacylglycerols (TAG) and diacylglycerols (DAG). In MS/1, the total number of carbons and number of unsaturated bonds was determined for all of the fatty acid chains. For example, TAG (50:3) is a triacylglycerol with 3 fatty acid chains that all together have 50 carbons and 3 unsaturated bonds. The mass for one of these fatty acids was determined in MS/2 and is listed as noted by its carbon length and unsaturated bond number using the same notation.\nSCD1 catalyzes the dehydrogenation of saturated fatty acid-CoA's to form unsaturated fatty acid-CoA's. For example, the enzyme gets its name from the conversion of stearic acid-CoA to oleic acid-CoA. For this reason, inhibition SCD1 was expected to alter the ratio of saturated:unsaturated fatty acids."}, "[4]": {"molecular_target": "T1, SCD1 (Mus musculus, UniProt P13516)", "T1 construct": "tissue derived from mouse liver and preputial gland was independently exposed; from tissue; host or cells: mouse liver", "T1 sequence (P13516 whole entry)": "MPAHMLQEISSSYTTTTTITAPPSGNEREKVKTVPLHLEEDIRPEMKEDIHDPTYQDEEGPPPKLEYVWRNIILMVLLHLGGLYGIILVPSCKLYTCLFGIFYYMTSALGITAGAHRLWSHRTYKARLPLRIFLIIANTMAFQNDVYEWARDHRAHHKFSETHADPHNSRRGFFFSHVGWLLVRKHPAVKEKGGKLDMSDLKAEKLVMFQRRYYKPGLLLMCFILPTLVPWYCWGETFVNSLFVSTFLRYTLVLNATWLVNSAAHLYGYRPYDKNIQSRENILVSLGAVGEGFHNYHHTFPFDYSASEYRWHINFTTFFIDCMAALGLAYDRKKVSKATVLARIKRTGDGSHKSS", "assay": "Tritium release assay of SCD1 activity, mouse preputial gland", "assay_type": "biochemical", "conditions": "preputial gland lacks CYP4F11", "source_text": "FIGS. 10A-10F. Sensitive cells express high levels of CYP4 family members. FIG. 10A. relative expression levels of mRNA for a panel of cytochrome P450 enzymes from the cancer cell line encyclopedia (CCLE, http://www.broadinstitute.org/ccle) showing CYP4F11 in particular is highly expressed in 4 NSCLC lines that are sensitive to SCD1 inhibition. FIG. 10B. Western blot showing that CYP4F11 protein is expressed in all sensitive cell lines but not in the majority of insensitive cell lines. FIG. 10C. […] FIG. 10D. Cells were incubated with either a methoxy-containing oxalamide, which represents the pro-drug form, or the hydroxy containing oxalamide, which represents the active form of the drug. […] FIG. 10E. 293t cells were transfected with mammalian expression plasmids containing SCD1 or CYP4F11 as indicated. Cells were treated with either SW208108 or its demethylated congener, SW211666, and conjugated with a fluorescent dye as described in FIG. 7. Cells containing CYP4F11 form covalent adducts with both the pro-drug (methoxy) and drug form (demethylated, i.e. OH). […] FIG. 10F. Shown are the results of a tritium release assay in which tritiated water is produced from tritiated stearoyl CoA by the action of SCD1. […] By contrast, SW211666 but not SW208108 inhibits SCD1 in mouse preputial gland, which lacks CYP4F11 (bottom). […]"}}, "data": [{"compound": "C#CCOc1ccc(C(=O)c2ccc(NC(=O)C(=O)NCCc3ccc(OC)cc3)cc2)cc1", "note": "[SW208108]", "values": [{"measurement": "impact of HMOX2 loss on sensitivity of H2122 clones", "setting": "[1]", "value": "no impact"}, {"measurement": "IC50", "setting": "[2]", "value": 0.03, "unit": "µM"}, {"measurement": "saturated vs unsaturated fatty acids in neutral lipids", "setting": "[3]", "value": "increased the percentage of neutral lipids containing saturated fatty acids"}, {"measurement": "inhibition of SCD1 activity in mouse preputial gland tissue", "setting": "[4]", "value": "not in the preputial gland"}]}]}
